Data set [1] deals with HIV pseudotyped virus, M184V. The format is cell-based. The following applies: U373 cells (CD4, CXCR4 or CCR5), luciferase signal after 3 days.
The subject of data set [2] is HIV pseudotyped virus (NL4-3 provirus, luciferase reporter), WT. As to the kind of experiment: PSV (pseudotyped virus) assay, WT. The note with it: Human immunodeficiency virus 1, NL43, 72 h, read-out: WT IC50.
Protocol: A pseudotyped virus assay (PSV) was used to assess the potency of the HIV inhibitor.
The PSV assay was performed by using U373 cells stably transformed to express human CD4, the primary receptor for HIV entry and either human CXCR4 or human CCR5 which are the co-receptors required for HIV entry as target cells for infection. […] This dose-range was applied to U373 cells and the pre-made pseudotyped virus added. The amount of luciferase signal produced after 3 days of culture was used to reflect the level of pseudotyped virus infection. An IC50, or the concentration of inhibitor required to reduce PSV infection by 50% from the infection containing no inhibitor was calculated. […] IC50 values were determined from a 10 point dose response curve using 3-4-fold serial dilution for each compound, which spans a concentration range>1000 fold.
These values are plotted against the molar compound concentrations using the standard four parameter logistic equation: y=((Vmax*x^n)/(K^n+x^n))+Y2
Data set [3] can be described thus: Example 18 dog PK studies (SC and IM). The following applies: beagle dog, single SC or IM injection, 5 mg parent/kg. The data set is classed as in vivo, beagle dogs. The text has this: Example 18 referenced herein was made in accordance with Synthesis B. Six male beagle dogs (+1 spare) were selected from the Testing Facility's colony of non-naïve animals. The animals were assigned to the study based on acceptable health as determined by a Testing Facility veterinarian. Six animals were selected and placed into two groups of three animals each. Fasting of the animals before or after dosing was not required.
On Day 1 each animal in Group 1 received a single intrascapular subcutaneous injection of prepared test article at a target dose level of 5 mg parent/kg in 2% P404/2% PEG3350/PBS (dose concentration 97.36 mg/mL prodrug) and at a dose volume of 0.1 mL/kg. Each animal in Group 2 received a single intramuscular injection of prepared test article in a hind quarter (quadriceps) at a target dose level of 5 mg parent/kg in 2% P404/2% PEG3350/PBS (dose concentration 97.36 mg/mL prodrug) and at a dose volume of 0.1 mL/kg. The animals were manually restrained for dosing and were not sedated. The dose sites were clipped of hair and wiped with alcohol before dosing. […]
The PK plasma samples were analyzed approximately every two weeks by the Testing Facility to determine the concentration of Example 18 (prodrug) and parent using an LC-MS/MS Research Grade Assay (RGA-1) with sensitivity to 0.1 ng/mL. […]

One may read the IC50 as the concentration that gives 50% inhibition.

On to `C#C[C@]1(COC(=O)CCCCCCCCC)O[C@@H](n2cnc3c(N)nc(F)nc32)C[C@@H]1OC(=O)CCCCCCCCC` [Example 18, (2R,3S,5R)-5-(6-amino-2-fluoro-9H-purin-9-yl)-2-((decanoyloxy)methyl)-2-ethynyltetrahydrofuran-3-yl Decanoate], for which the half-inhibitory concentration (IC50) in data set [1] was found to be 73 nM; in data set [2], 10 nM. In data set [3], the “Clinical observations and dose site reactions” value was “All animals appeared normal at the time of each observation and no dose site reactions were observed”.

These data come from patent US12240853B2, “Compounds useful in HIV therapy” (GlaxoSmithKline Intellectual Property (No.2) Limited, priority 2019, dated 2025).
